Measured values: patent US8337903B2, “Antitumoral agents with a benzophenanthridine structure and formulations containing them” (Indena S.p.A., priority 2008, dated 2012)

Legend:
[1] = system: melanoma stem cells; experiment: in vitro inhibiting activity towards melanoma stem cells; format: cell-based; conditions: concentration of 200 ng/ml
Description: (§1) Its behaviour towards other oncological stem cells is identical. These alkaloids can consequently be considered new-generation antitumoral agents, which are able to treat human tumors effectively. For tumors of the colon, liver, pancreas and cervix the most appropriate form is the salt with luteic acid dispersed in a suitable vehicle, whereas for the treatment of skin tumors such as melanoma, the salt with a phosphatidic acid can advantageously be administered topically directly to the area affected by the tumor.

[2] = system: oropharynx, head and neck tumors, melanoma and cervical tumors; experiment: treatment of oropharynx, head and neck tumors, melanoma and cervical tumors; format: in vivo; conditions: oral and topical administration; compared with the unsalified alkaloid
Description: The product most suitable for oral and topical administration is the salt of sanguinarine with luteic acid.

[3] = system: colon stem cells; experiment: in vitro inhibiting activity towards colon stem cells; format: cell-based; conditions: concentration of 200 ng/ml
Description: as §1

In the case of “luteic acid sanguinarine salt [salt of sanguinarine with luteic acid]”, the “inhibiting activity towards melanoma stem cells” value [1] is reported as “potent inhibiting activity”, the “effectiveness in the treatment of tumors” value [2] is reported as “particularly effective” and the “inhibiting activity towards colon stem cells” value [3] is reported as “potent inhibiting activity”.
